pKd: −log10 of the molar value.
Target: T1, PYCR1 (recombinant human His-PYCR1) (Homo sapiens, UniProt P32322)
T1 sequence (P32322 2-319): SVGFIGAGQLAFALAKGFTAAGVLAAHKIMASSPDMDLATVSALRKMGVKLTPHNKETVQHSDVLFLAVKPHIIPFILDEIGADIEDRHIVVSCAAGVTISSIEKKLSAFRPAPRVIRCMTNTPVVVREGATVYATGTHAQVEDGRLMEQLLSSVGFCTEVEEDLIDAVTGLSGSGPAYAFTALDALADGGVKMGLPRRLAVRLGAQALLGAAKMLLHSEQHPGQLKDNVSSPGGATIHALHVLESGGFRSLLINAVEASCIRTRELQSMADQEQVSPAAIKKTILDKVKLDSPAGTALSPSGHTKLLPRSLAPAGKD
Test: surface plasmon resonance
Assay type: binding

- pKd: 5.10
Compound: Nc1ncnc2c([C@@H]3O[C@H](CO)[C@@H](O)[C@H]3O)c[nH]c12 [9-DAA]

— article PMC12309613 (Translational Oncology, 2025)
